# Patent US20210395256A1, “TYROSINE KINASE INHIBITORS, COMPOSITIONS AND METHODS THERE OF” (Betta Pharmaceuticals Co., Ltd., priority 2018, published 2021)
# Key:
# Assay type in all cases: in vitro ADME
# [1] = Liver microsomes metabolic stability assay, rat; settings: male, rat liver microsomes 0.5 mg/mL, 37° C.; for half-life at 2 μM: read-out: t1/2 Rat
# Outline: (§1)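 Pooled human, male rat or male mouse liver microsomes (0.5 mg/mL final) incubated at 37° C with 2 μM compound, with or without 1 mM NADPH. Samples at 0-60 min quenched in cold acetonitrile and analyzed by LC-MS/MS in duplicate. t1/2 derived from ln(% remaining) vs time slope, converted to CLint (μL/min/mg).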
# [2] = Plasma protein binding (equilibrium dialysis), human; settings: for recovery at 6 h, 1 μM / fraction unbound at 6 h, 1 μM: pH 7.4, human plasma, 6 hours dialysis; for fraction unbound at 6 h, 1 μM: read-out: Mean % Bound Human (converted)
# Experimental: (§2) Example 204 Plasma Protein Binding Measurements
# (§3) The plasma protein binding was measured as the following procedure.
# (§4) 1) Preparation of 100 mM sodium phosphate and 150 mM NaCl buffer (PBS)
# (§5) A basic solution was prepared by dissolving 14.2 g/L Na2HPO4 and 8.77 g/L NaCl in deionized water and the solution could be stored at 4° C. for up to 7 days. An acidic solution was prepared by dissolving 12.0 g/L NaH2PO4 and 8.77 g/L NaCl in deionized water and the solution could be stored at 4° C. for up to 7 days. The basic solution was titrated with the acidic solution to pH 7.4 and store at 4° C. for up to 7 days. pH was checked on the day of experiment and was adjusted if outside specification of 7.4±0.1.
# (§6) Frozen plasma was thawed immediately at room temperature.
# (§7) The plasma was centrifuged at 3,220 g for 10 minutes to remove clots and supernatant was collected into a fresh tube. The pH of the plasma was checked and recorded.
# (§8) Note: a). Only use plasma that has been thawed no more than twice since arrival. b). Only use plasma within the range of pH 7 to pH 8.
# (§9) 3) Preparation of working solutions
# (§10) The working solutions of test compounds and control compound ketoconazole were prepared in DMSO at the concentration of 200 μM. And then 3 μL of working solution was removed to mix with 597 μL of human, rat or mouse plasma to achieve a final concentration of 1 μM (0.5% DMSO). Plasma samples were vortexed thoroughly.
# (§11) 4) Preparation of dialysis membranes
# (§12) The dialysis membranes were soaked in ultrapure water for 60 minutes to separate strips, then in 20% ethanol for 20 minutes, finally in dialysis buffer for 20 minutes.
# (§13) 5) Procedure for equilibrium dialysis
# (§14) The dialysis apparatus was assembled according to the manufacturer's instruction. Each cell was filled with 120 μL of plasma sample and dialyzed against equal volume of dialysis buffer (PBS). The assay was performed in duplicate. The dialysis plate was sealed and incubated in an incubator at 37° C. with 5% CO2 at 100 rpm for 6 hours. At the end of incubation, seal was removed and 50 μL of samples from both buffer and plasma chambers were transferred to wells of a 96-well plate.
# (§15) 6) Procedure for sample analysis
# (§16) 50 μL of blank plasma was added to each buffer samples and an equal volume of PBS was supplemented to the collected plasma sample. 300 μL of room temperature quench solution (acetonitrile containing internal standards (1S, 100 nM Alprazolam, 500 nM Labetalol and 2 μM Ketoprofen)) was added to precipitate protein. Samples in plate were vortexed for 5 minutes and centrifuged at 3,220 g for 30 minutes at 4° C. And then 100 μL of the supernatant was transferred to a new 96-well plate with 100 μL or 200 μL water (depends on the LC-MS signal response and peak shape) for LC-MS/MS analysis.
# (§17) Calculate the percentages of test compound and control compound bound as follows:
# (§18) % Free=(Peak Area Ratiobuffer chamber/Peak Area Ratioplasma chamber)*100
# (§19) % Recovery=(Peak Area Ratiobuffer chamber+Peak Area Ratioplasma chamber)/Peak Area Ratio total sample*100
# (§20) Peak Area Ratiobuffer chamber means the conc for free fraction
# (§21) Peak Area Ratioplasma chamber means the conc for both free and bound fraction
# (§22) Peak Area Ratiototal sample means the conc for starting sample before incubation
# [3] = Liver microsomes metabolic stability assay, human; settings: human liver microsomes 0.5 mg/mL, 37° C.; for half-life at 2 μM: read-out: t1/2 Human
# Outline: as §1
# [4] = Plasma protein binding (equilibrium dialysis), mouse; settings: pH 7.4, 6 hours dialysis; for fraction unbound at 6 h, 1 μM: read-out: Mean % Bound Mouse (converted)
# Experimental: as §2, §3, §4, §5, §6, §7, §8, §9, §10, §11, §12, §13, §14, §15, §16, §17, §18, §19, §20, §21, §22
Compound,microsomal CLint at 2 μM [1] [µL/min/mg],half-life at 2 μM [1] [min],degree of plasma protein binding (in words) ([2]; as shown in Table 16),"recovery at 6 h, 1 μM [2] [%]","fraction unbound at 6 h, 1 μM [2]",microsomal CLint at 2 μM [3] [µL/min/mg],half-life at 2 μM [3] [min],"recovery at 6 h, 1 μM [4] [%]","fraction unbound at 6 h, 1 μM [4]"
"Cc1nnc(-c2cnn3ccc(N4CCCC4c4cc(F)ccc4F)nc23)[nH]1 (centres unmarked) [Comparative compound A, 5-[2-(2,5-Difluorophenyl)pyrrolidin-1-yl]-3-(5-methyl-1H-1,2,4-triazol-3-yl)pyrazolo[1,5-a]pyrimidine, reference compound]",78.5,17.7,high degree of plasma protein binding,93.8,0.0323,108,12.8,89.4,0.0488
"C[C@H](O)c1nnc(-c2cnn3ccc(N4CCC[C@@H]4c4cc(F)ccc4F)nc23)[nH]1 [Compound 4, (S)-1-(5-(5-((R)-2-(2,5-difluorophenyl)pyrrolidin-1-yl)pyrazolo[1,5-a]pyrimidin-3-yl)-4H-1,2,4-triazol-3-yl)ethan-1-ol]",29.3,47.3,–,–,0.0691,20.4,67.9,–,0.0443
"CC(C)(O)c1nnc(-c2cnn3ccc(N4CCC[C@@H]4c4cc(F)ccc4F)nc23)[nH]1 [Compound 7, (R)-2-(5-(5-(2-(2,5-difluorophenyl)pyrrolidin-1-yl)pyrazolo[1,5-a]pyrimidin-3-yl)-4H-1,2,4-triazol-3-yl)propan-2-ol]",25.3,54.9,–,96.3,0.0988,11.1,124,89.4,0.0929
"C[C@H](N)c1nnc(-c2cnn3ccc(N4CCC[C@@H]4c4cc(F)ccc4F)nc23)[nH]1 [Compound 11, (S)-1-(5-(5-((R)-2-(2,5-difluorophenyl)pyrrolidin-1-yl)pyrazolo[1,5-a]pyrimidin-3-yl)-4H-1,2,4-triazol-3-yl)ethan-1-amine]",5.23,–,–,89.3,0.284,4.27,–,85.5,0.244
"OC1(c2nnc(-c3cnn4ccc(N5CCC[C@@H]5c5cc(F)ccc5F)nc34)[nH]2)CCC1 [Compound 23, (R)-1-(5-(5-(2-(2,5-difluorophenyl)pyrrolidin-1-yl)pyrazolo[1,5-a]pyrimidin-3-yl)-4H-1,2,4-triazol-3-yl)cyclobutan-1-ol]",50,27.7,–,–,0.0604,9.36,148,–,0.0397
"CC(C)(O)Cc1nnc(-c2cnn3ccc(N4CCC[C@@H]4c4cc(F)ccc4F)nc23)[nH]1 [Compound 30, (R)-1-(5-(5-(2-(2,5-difluorophenyl)pyrrolidin-1-yl)pyrazolo[1,5-a]pyrimidin-3-yl)-4H-1,2,4-triazol-3-yl)-2-methylpropan-2-ol]",69.6,19.9,–,90.7,0.139,16.8,82.7,90,0.0887
"OC1CC(c2nnc(-c3cnn4ccc(N5CCC[C@@H]5c5cc(F)ccc5F)nc34)[nH]2)C1 (stereo partly drawn) [Compound 31, (R)-3-(5-(5-(2-(2,5-difluorophenyl)pyrrolidin-1-yl)pyrazolo[1,5-a]pyrimidin-3-yl)-4H-1,2,4-triazol-3-yl)cyclobutan-1-ol]",69.1,20.1,–,96.8,0.121,16.4,84.6,94.2,0.0998
"C[C@@H](CO)c1nnc(-c2cnn3ccc(N4CCC[C@@H]4c4cc(F)ccc4F)nc23)[nH]1 [Compound 39, (R)-2-(5-(5-((R)-2-(2,5-difluorophenyl)pyrrolidin-1-yl)pyrazolo[1,5-a]pyrimidin-3-yl)-4H-1,2,4-triazol-3-yl)propan-1-ol]",80.2,17.3,–,97.4,0.111,17.2,80.6,91.3,0.0676
